What was measured:
[1] = system: Botryotinia fuckeliana (Botrytis cinerea); experiment: Botryotinia fuckeliana (Botrytis cinerea) / liquid culture (gray mould); format: cell-based; details: Vogels broth, 24° C., 3-4 days after application, read-out: control of Botryotinia fuckeliana (inhibition of growth, photometric)
Description: Example B2: Botryotinia fuckeliana (Botrytis cinerea)/Liquid Culture (Gray Mould) Conidia of the fungus from cryogenic storage are directly mixed into nutrient broth (Vogels broth). After placing a (DMSO) solution of test compound into a microtiter plate (96-well format), the nutrient broth containing the fungal spores is added. The test plates are incubated at 24° C. and the inhibition of growth is determined photometrically 3-4 days after application. […] […]-190.

[2] = system: Mycosphaerella graminicola (Septoria tritici); experiment: Mycosphaerella graminicola (Septoria tritici) / liquid culture (Septoria blotch); format: cell-based; details: Zymoseptoria tritici, PDB potato dextrose broth, 24° C., 4-5 days after application, read-out: control of Mycosphaerella graminicola (inhibition of growth, photometric)
Procedure, shortened: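 Fungal growth inhibition was read photometrically 4-5 days after application. Compound was dosed from a DMSO solution into liquid cultures of spores in potato dextrose broth, incubated at 24° C.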

[3] = system: Glomerella lagenarium (Colletotrichum lagenarium); experiment: Glomerella lagenarium (Colletotrichum lagenarium) / liquid culture (anthracnose); format: cell-based; details: Colletotrichum orbiculare, PDB potato dextrose broth, 24° C., 3-4 days after application, read-out: control of Glomerella lagenarium (inhibition of growth, photometric)
Procedure, shortened: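 Fungal growth inhibition measured photometrically 3-4 days post-application at 24° C. Spores were mixed directly into potato dextrose broth and dispensed onto test compound supplied in DMSO.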

[4] = system: Phaeosphaeria nodorum (Septoria nodorum); experiment: Phaeosphaeria nodorum (Septoria nodorum) / wheat / leaf disc preventative (glume blotch); format: in vivo; details: Parastagonospora nodorum, foliar, wheat leaf segments cv. Kanzler, inoculated 2 days after application, assessed 5-7 days after application, read-out: control of Phaeosphaeria nodorum (percent disease control compared to untreated)
Description: Example B6: Phaeosphaeria nodorum (Septoria nodorum)/Wheat/Leaf Disc Preventative (Glume Blotch) Wheat leaf segments cv. Kanzler are placed on agar in a multiwell plate (24-well format) and sprayed with the formulated test compound diluted in water. The leaf disks are inoculated with a spore suspension of the fungus 2 days after application. The inoculated test leaf disks are incubated at 20° C. and 75% rh under a light regime of 12 h light/12 h darkness in a climate cabinet and the activity of a compound is assessed as percent disease control compared to untreated when an appropriate level of disease damage appears in untreated check leaf disks (5-7 days after application). […] […]-190.

Alternaria solani = Alternaria solani / tomato / leaf disc (early blight); format: in vivo; details: foliar, tomato leaf disks cv. Baby, inoculated 2 days after application, assessed 5-7 days after application, read-out: control of Alternaria solani (percent disease control compared to untreated)
Description: Example B1: Alternaria solani/Tomato/Leaf Disc (Early Blight) Tomato leaf disks cv. Baby are placed on agar in multiwell plates (24-well format) and sprayed with the formulated test compound diluted in water. The leaf disks are inoculated with a spore suspension of the fungus 2 days after application. The inoculated leaf disks are incubated at 23° C./21° C. […] […]-185.

[5] = system: Puccinia recondita f. sp. tritici; experiment: Puccinia recondita f. sp. tritici / wheat / leaf disc preventative (brown rust); format: in vivo; details: foliar, wheat leaf segments cv. Kanzler, inoculated 1 day after application, assessed 7-9 days after application, read-out: control of Puccinia recondita f. sp. tritici, preventative (percent disease control compared to untreated)
Procedure, shortened: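 Wheat leaf segments (cv. Kanzler) on agar were sprayed with formulated compound, then inoculated with spores 1 day later. Segments were incubated at 19 °C, 75% rh with 12 h light/dark. Percent disease control versus untreated was scored 7–9 days after application.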

[6] = system: Monographella nivalis (Microdochium nivale); experiment: Monographella nivalis (Microdochium nivale) / liquid culture (foot rot cereals); format: cell-based; details: PDB potato dextrose broth, 24° C., 4-5 days after application, read-out: control of Monographella nivalis (inhibition of growth, photometric)
Procedure, shortened: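 Growth inhibition measured by photometry 4-5 days post-application at 24° C. Compound was dispensed as DMSO solution, then PDB broth containing conidia from cryogenic storage was added.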

[7] = system: Blumeria graminis f. sp. tritici (Erysiphe graminis f. sp. tritici); experiment: Blumeria graminis f. sp. tritici / wheat / leaf disc preventative (powdery mildew on wheat); format: in vivo; details: foliar, wheat leaf segments cv. Kanzler, inoculated 1 day after application, assessed 6-8 days after application, read-out: control of Blumeria graminis f. sp. tritici (percent disease control compared to untreated)
Description: Example B4: Blumeria graminis f. sp. tritici (Erysiphe graminis f. sp. tritici)/Wheat/Leaf Disc Preventative (Powdery Mildew on Wheat) Wheat leaf segments cv. Kanzler are placed on agar in a multiwell plate (24-well format) and sprayed with the formulated test compound diluted in water. The leaf disks are inoculated by shaking powdery mildew infected plants above the test plates 1 day after application. […] […]-192.

[8] = system: Magnaporthe grisea (Pyricularia oryzae); experiment: whole plant or invertebrate; format: in vivo; details: foliar, read-out: control of Magnaporthe grisea (percent disease control compared to untreated)
Pyrenophora teres = Pyrenophora teres / barley / leaf disc preventative (net blotch); format: in vivo; details: foliar, barley leaf segments cv. Hasso, inoculated 2 days after application, assessed 5-7 days after application, read-out: control of Pyrenophora teres (disease control compared to untreated)
Description: Example B13: Pyrenophora teres/Barley/Leaf Disc Preventative (Net Blotch) Barley leaf segments cv. Hasso are placed on agar in a multiwell plate (24-well format) and sprayed with the formulated test compound diluted in water. The leaf segments are inoculated with a spore suspension of the fungus 2 days after application. The inoculated leaf segments are incubated at 20° C. and 65% rh under a light regime of 12 h light/12 h darkness in a climate cabinet and the activity of a compound is assessed as disease control compared to untreated when an appropriate level of disease damage appears in untreated check leaf segments (5-7 days after application). […] […]-185.

CC(C)(C)NC(=O)c1cccc(Nc2cc(F)cc(F)c2)n1 [Compound P-112, N-tert-butyl-6-(3,5-difluoroanilino)pyridine-2-carboxamide]
≥ 80%: inhibition at 20 ppm [1] | inhibition at 20 ppm [2] | inhibition at 20 ppm [3] | pest or weed control at 200 ppm [4] | pest or weed control at 200 ppm (Alternaria solani) | pest or weed control at 200 ppm [5] | inhibition at 20 ppm [6] | pest or weed control at 200 ppm [7] | pest or weed control at 200 ppm [8]

COc1cc(Nc2cc(F)cc(F)c2)nc(C(=O)NC(C)(C)C)c1 [Compound P-116, N-tert-butyl-6-(3,5-difluoroanilino)-4-methoxy-pyridine-2-carboxamide]
≥ 80%: inhibition at 20 ppm [1] | pest or weed control at 200 ppm (Pyrenophora teres) | inhibition at 20 ppm [3] | pest or weed control at 200 ppm [4]

CC1(NC(=O)c2cccc(Nc3cc(F)cc(F)c3)n2)CCCC1 [Compound P-119, 6-(3,5-difluoroanilino)-N-(1-methylcyclopentyl)pyridine-2-carboxamide]
≥ 80%: inhibition at 20 ppm [1] | inhibition at 20 ppm [2] | inhibition at 20 ppm [3] | pest or weed control at 200 ppm [5] | inhibition at 20 ppm [6] | pest or weed control at 200 ppm [8]

CC1(NC(=O)c2cccc(Nc3cc(F)nc(F)c3)n2)CCCC1 [Compound P-120, 6-[(2,6-difluoro-4-pyridyl)amino]-N-(1-methylcyclopentyl)pyridine-2-carboxamide]
≥ 80%: inhibition at 20 ppm [1] | inhibition at 20 ppm [2] | inhibition at 20 ppm [3] | pest or weed control at 200 ppm [5] | inhibition at 20 ppm [6] | pest or weed control at 200 ppm [8]

COc1ccc(Nc2ccc(C)c(Cl)c2)nc1C(=O)NCC(C)(C)C [Compound P-132, 6-(3-chloro-4-methyl-anilino)-N-(2,2-dimethylpropyl)-3-methoxy-pyridine-2-carboxamide]
≥ 80%: inhibition at 20 ppm [1] | inhibition at 20 ppm [2] | inhibition at 20 ppm [3] | inhibition at 20 ppm [6]

COc1ccc(Nc2cc(F)cc(Cl)c2)nc1C(=O)NCC(C)(C)C [Compound P-134, 6-(3-chloro-5-fluoro-anilino)-N-(2,2-dimethylpropyl)-3-methoxy-pyridine-2-carboxamide]
≥ 80%: inhibition at 20 ppm [1] | inhibition at 20 ppm [2] | pest or weed control at 200 ppm (Pyrenophora teres) | inhibition at 20 ppm [3] | inhibition at 20 ppm [6] | pest or weed control at 200 ppm [7]

COc1ccc(Nc2ccc(C)c(F)c2)nc1C(=O)NCC(C)(C)C [Compound P-142, N-(2,2-dimethylpropyl)-6-(3-fluoro-4-methyl-anilino)-3-methoxy-pyridine-2-carboxamide]
≥ 80%: inhibition at 20 ppm [1] | inhibition at 20 ppm [3]

COc1ccc(Nc2ccc(C)c(Cl)c2)nc1C(=O)NC(C)(C)C [Compound P-151, N-tert-butyl-6-(3-chloro-4-methyl-anilino)-3-methoxy-pyridine-2-carboxamide]
≥ 80%: inhibition at 20 ppm [1] | inhibition at 20 ppm [2] | inhibition at 20 ppm [3] | inhibition at 20 ppm [6] | pest or weed control at 200 ppm [8]

COc1ccc(Nc2cccc(Cl)c2)nc1C(=O)NC(C)(C)C [Compound P-155, N-tert-butyl-6-(3-chloroanilino)-3-methoxy-pyridine-2-carboxamide]
≥ 80%: inhibition at 20 ppm [1] | inhibition at 20 ppm [2] | pest or weed control at 200 ppm (Pyrenophora teres) | inhibition at 20 ppm [3] | pest or weed control at 200 ppm [5] | inhibition at 20 ppm [6] | pest or weed control at 200 ppm [8]

COc1ccc(Nc2cc(F)cc(F)c2)nc1C(=O)NC(C)C(C)(C)C (stereo not shown) [Compound P-170, 6-(3,5-difluoroanilino)-3-methoxy-N-(1,2,2-trimethylpropyl)pyridine-2-carboxamide]
≥ 80%: inhibition at 20 ppm [1] | inhibition at 20 ppm [2] | inhibition at 20 ppm [3] | pest or weed control at 200 ppm (Alternaria solani) | inhibition at 20 ppm [6] | pest or weed control at 200 ppm [7]

COc1ccc(Nc2cc(F)nc(F)c2)nc1C(=O)NC(C)(C)C(C)C [Compound P-173, 6-[(2,6-difluoro-4-pyridyl)amino]-3-methoxy-N-(1,1,2-trimethylpropyl)pyridine-2-carboxamide]
≥ 80%: inhibition at 20 ppm [1] | inhibition at 20 ppm [2] | inhibition at 20 ppm [3] | pest or weed control at 200 ppm (Alternaria solani) | pest or weed control at 200 ppm [5] | inhibition at 20 ppm [6] | pest or weed control at 200 ppm [7]

Cc1ccc(Nc2cc(F)cc(F)c2)nc1C(=O)NC1CCC1(C)C (stereo not shown) [Compound P-175, 6-(3,5-difluoroanilino)-N-(2,2-dimethylcyclobutyl)-3-methyl-pyridine-2-carboxamide]
≥ 80%: inhibition at 20 ppm [1] | inhibition at 20 ppm [2] | inhibition at 20 ppm [3] | inhibition at 20 ppm [6]

COc1ccc(N(C(C)=O)c2cc(F)cc(F)c2)nc1C(=O)NC1CCC1(C)C (stereo not shown) [Compound P-189, 6-(N-acetyl-3,5-difluoro-anilino)-N-(2,2-dimethylcyclobutyl)-3-methoxy-pyridine-2-carboxamide]
≥ 80%: inhibition at 20 ppm [1] | inhibition at 20 ppm [2] | inhibition at 20 ppm [3] | pest or weed control at 200 ppm [4] | inhibition at 20 ppm [6] | pest or weed control at 200 ppm [7] | pest or weed control at 200 ppm [8]

COc1ccc(Nc2cc(F)cc(F)c2Cl)nc1C(=O)NC(C)(C)C [Compound P-190, N-tert-butyl-6-(2-chloro-3,5-difluoro-anilino)-3-methoxy-pyridine-2-carboxamide]
≥ 80%: inhibition at 20 ppm [1] | inhibition at 20 ppm [2] | inhibition at 20 ppm [3] | pest or weed control at 200 ppm [4] | pest or weed control at 200 ppm [5] | inhibition at 20 ppm [6]

Reference: patent publication US12458021B2, “Microbiocidal derivatives” (SYNGENTA CROP PROTECTION AG, priority 2019, dated 2025)
